We go through 30 compounds from patent publication US9428477B2, “Trans-2-decenoic acid derivative and drug containing same” (NIPPON ZOKI PHARMACEUTICAL CO., LTD., priority 2012, dated 2016).

Each structure is given as a SMILES string.

One series deals with rats with paclitaxel-induced peripheral nerve disorder. The experiment in a line: Rat peripheral nerve disorder induced by paclitaxel, von Frey test. The class given is in vivo. Conditions: ip, test drug intraperitoneally, single dose, higher of values 1 and 5 hours after administration, mechanical stimulus of right hind limb, normal threshold 15, read-out: Recovery Rate of 50% Reaction Threshold Value. The procedure:
The effects of the compounds of the present invention were evaluated for a peripheral nerve disorder which is a side effect induced by the administration of an anti-cancer agent paclitaxel, such as hyperesthesia including allodynia induced by mechanical stimuli, which is a severe pain induced by such tactile stimuli which usually cause no pains. The compound of the present invention was intraperitoneally administered to rats as a test drug to conduct a von Frey test.
Male SD rats of six weeks age (six rats per group) were used as experimental animals, and paclitaxel (2 mg/kg) was intraperitoneally administered every other day for four times in total to prepare rats with paclitaxel-induced peripheral nerve disorder. During the period of 18 to 25 days or during the period of 20 to 27 days after the initiation of paclitaxel administration, the test drug was intraperitoneally administered in a single dose of […], and the following von Frey test was conducted.
The rats of the above (1) were placed in a transparent acrylic cage with a wire-meshed floor and habituated for about three minutes, and the 50% reaction threshold values to the mechanical stimulus of right hind limb were measured before administration of the test drug and after 1 and 5 hours from the initiation of the administration.
The measurement was conducted using von Frey filaments (manufactured by North Coast Medical Inc.) in accordance with the methods of Chaplan, et al. (Journal of Neuroscience Methods, 53(1), 55-63, 1994) and Dixon, et al. (Annual Review of Pharmacology and Toxicology, 20, 441-462, 1980). […] The case where the rat escaped at the instance of removing the filament was also called positive. When the positive reaction was found, stimulus was applied similarly with a filament of one rank weaker, and in the absence of the reaction, stimulus was similarly applied with a filament of one rank stronger, and a point where the reaction changed from negative to positive or from positive to negative was called the first two reactions. Subsequently, stimuli were applied for continuously four times by the same up-down method. A 50% reaction threshold value to the mechanical stimulus was measured using the reaction to the six stimuli in total and then (mean value)±(standard error) for each group was calculated. Incidentally, when stimulus reached to a load of 15.0 g without positive reaction, or when positive reaction continued to a load of 0.4 g, 15.0 g or 0.25 g was adopted as each of 50% reaction threshold values. With regard to the higher 50% reaction threshold value between the 50% threshold values after 1 hour and 5 hours from administration of a test drug, a recovery rate (%) of the 50% reaction threshold value was calculated by the following expression in which 15 was taken as a normal threshold value.
Recovery rate (%) of 50% reaction threshold value=[(50% reaction threshold value after 1 hour or 5 hours from administration of test drug)−(50% reaction threshold value before administration of test drug)]/[(Normal threshold value)−(50% reaction threshold value before administration of test drug)]×100
For the compound `CCCCCCC/C=C/C(=O)N1CCN(c2ccc(OCC(=O)O)cc2)CC1` [Compound 47, 2-[4-[4-((E)-2-Decenoyl)piperazin-1-yl]phenoxy]acetic acid], the change in vivo at 0.3 mg/kg worked out at 54.5%. With `CCCCCCC/C=C/C(=O)N1CCN(c2ccc(F)cc2)CC1` [Compound 44, 1-((E)-2-Decenoyl)-4-(4-fluorophenyl)piperazine], the change in vivo at 0.3 mg/kg turned out to be 42.6%. On to `CCCCCCC/C=C/C(=O)N1CCC(CN(CC)CC)CC1` [Compound 14, 1-((E)-2-Decenoyl)-4-diethylaminomethylpiperidine], for which the change in vivo at 0.3 mg/kg is 26%. On the same count and under the same terms, under `CCCCCCC/C=C/C(=O)N1CCN(c2ccc(Cl)cc2)CC1` [Compound 41, 1-((E)-2-Decenoyl)-4-(4-chlorophenyl)piperazine] stands 81.5%; under `CCCCCCC/C=C/C(=O)N1CCOCC1` [Compound 17, 4-((E)-2-Decenoyl)morpholine], 30.6%. On the same count and under the same terms, under `CCCCCCC/C=C/C(=O)N1CCC(N(CC)CC)CC1` [Compound 13, 1-((E)-2-Decenoyl)-4-diethylaminopiperidine] stands 23.2%; under `CCCCCCC/C=C/C(=O)N1CCC(O)CC1` [Compound 8, 1-((E)-2-Decenoyl)-4-hydroxypiperidine], 49.7%. On the same count and under the same terms, under `CCCCCCC/C=C/C(=O)N1CCN(c2ccccc2Cl)CC1` [Compound 45, 1-((E)-2-Decenoyl)-4-(2-chlorophenyl)piperazine] stands 33.3%. Regarding `CCCCCCC/C=C/C(=O)N1CCN(C)CC1` [Compound 19, 1-((E)-2-Decenoyl)-4-methylpiperazine], the change in vivo at 0.3 mg/kg stood at 19.8%. Take `CCCCCCC/C=C/C(=O)N1CCN(CCN2CCCCC2)CC1` [Compound 24, 1-((E)-2-Decenoyl)-4-(2-piperidin-1-ylethyl)piperazine]: the change in vivo at 0.3 mg/kg stood at 49.7%. As for `CCCCCCC/C=C/C(=O)N1CCCN(C)CC1` [Compound 33, 1-((E)-2-Decenoyl)-4-methyl-[1,4]diazepane], the change in vivo at 0.3 mg/kg is 33.4%. On the same count and under the same terms, for `CCCCCCC/C=C/C(=O)N1CCC(C#N)CC1` [Compound 37, 1-((E)-2-Decenoyl)-4-cyanopiperidine] the value was 22.4%. The same measure, in the same setting: for `CCCCCCC/C=C/C(=O)N1CCC(OC)CC1` [Compound 9, 1-((E)-2-Decenoyl)-4-methoxypiperidine] the value was 35.6%; for `CCCCCCC/C=C/C(=O)N1CCN(c2ccncc2)CC1` [Compound 29, 1-((E)-2-Decenoyl)-4-(pyridin-4-yl)piperazine], 42.8%. The same measure, in the same setting: under `CCCCCCC/C=C/C(=O)N1CCN(c2ccc(O)cc2)CC1` [Compound 46, 1-((E)-2-Decenoyl)-4-(4-hydroxyphenyl)piperazine] stands 53.7%; under `CCCCCCC/C=C/C(=O)N1CCC(CCN(C)C)CC1` [Compound 15, 1-((E)-2-Decenoyl)-4-(2-dimethylaminoethyl)piperidine], 34.2%; under `CCCCCCC/C=C/C(=O)N1CCC(CCC(=O)O)CC1` [Compound 36, 3-(1-((E)-2-Decenoyl)-4-piperidyl)propanoic acid], 42%. With `CCCCCCC/C=C/C(=O)N1CCN(c2ccc(OC)cc2)CC1` [Compound 42, 1-((E)-2-Decenoyl)-4-(4-methoxyphenyl)piperazine], the change in vivo at 0.3 mg/kg is 45.8%. As to `CCCCCCC/C=C/C(=O)N1CCN(Cc2ccc(C(=O)O)cc2)CC1` [Compound 48, 4-[[4-((E)-2-Decenoyl)piperazin-1-yl]methyl]benzoic acid], the change in vivo at 0.3 mg/kg was 56.4%.

For `CCCCCCC/C=C/C(=O)N1CCN(c2ccc(N(C)C)cc2)CC1` [Compound 28, 1-((E)-2-Decenoyl)-4-(4-dimethylaminophenyl)piperazine], the change in vivo at 0.3 mg/kg came to 20.3%. Same read-out and setting: for `CCCCCCC/C=C/C(=O)N1CCN(CCCC(=O)O)CC1.Cl` [Compound 40, 4-[4-[(E)-2-Decenoyl]piperazin-1-yl]butanoic acid hydrochloride] the value was 61.6%; for `CCCCCCC/C=C/C(=O)N1CCCN(CCN(C)C)CC1` [Compound 34, 1-((E)-2-Decenoyl)-4-(2-dimethylaminoethyl)-[1,4]diazepane], 35.5%; for `CCCCCCC/C=C/C(=O)N1CCCCCC1` [Compound 32, 1-((E)-2-Decenoyl)azepane], 51.1%.

As to `CCCCCCC/C=C/C(=O)N1CCN(c2ccccn2)CC1` [Compound 30, 1-((E)-2-Decenoyl)-4-(pyridin-2-yl)piperazine], the change in vivo at 0.3 mg/kg is 22.6%. As to `CCCCCCC/C=C/C(=O)N1CCC(c2ccccc2)CC1` [Compound 16, 1-((E)-2-Decenoyl)-4-phenylpiperidine], the change in vivo at 0.3 mg/kg stood at 38.6%. On the same count and under the same terms, under `CCCCCCC/C=C/C(=O)N1CCC(CC(=O)O)CC1` [Compound 35, 2-(1-((E)-2-Decenoyl)-4-piperidyl)acetic acid] stands 41.2%; under `CCCCCCC/C=C/C(=O)N1CCN(c2ccc(C)cc2)CC1` [Compound 43, 1-((E)-2-Decenoyl)-4-(4-methylphenyl)piperazine], 31.3%.

With `CCCCCCC/C=C/C(=O)N1CCC(c2ccc(Cl)cc2)CC1` [Compound 38, 1-((E)-2-Decenoyl)-4-(4-chlorophenyl)piperidine], the change in vivo at 0.3 mg/kg amounted to 55.5%. Still for that read-out and setting: for `CCCCCCC/C=C/C(=O)N1CCN(c2ncccn2)CC1` [Compound 31, 1-((E)-2-Decenoyl)-4-(pyrimidin-2-yl)piperazine] the value was 22.9%; for `CCCCCCC/C=C/C(=O)N1CCN(CC(=O)O)CC1.Cl` [Compound 39, [4-[(E)-2-Decenoyl]piperazin-1-yl]acetic acid hydrochloride], 16.6%.

In a further series the test system is MAP kinase (ERK 1/2). The experiment in a line: Activation (phosphorylation) of MAP kinase in cultured cerebral cortex nerve cells, Western immunoblotting. The class given is cell-based. Conditions: 0.5 h; fetal rat cerebral cortex nerve cells; compound 250 μg/ml in 0.1% DMSO; 30 minutes; relative to control = 1.00; read-out: Ratio of pMAPK to MAPK. The procedure:
With regard to the compounds of the present invention, the activation of MAP kinase (ERK 1/2) was measured in accordance with a Western immunoblotting in the following manner.
Nerve cells were dispersed from cerebral cortex of a fetal rat of 17 days age, and the nerve cells were cultured for one day in a Dulbecco's modified Eagle's medium (DMEM) containing 5% fetal bovine serum. The culture medium was exchanged with a serum-free medium (B27 supplemented Neurobasal; Invitrogen), and the nerve cells were cultured at the density of 20,000 to 40,000 cells/cm^2 in a polyornithine-coated culture dish.
After three days, the compound of the present invention was added, and the culture was continued for 30 minutes. Thereafter, the cells were recovered on ice using a solution containing a phosphatase inhibitor where Tris-HCl buffer was used as a base. The protein concentration of the resulting cell extract was quantified with a BCA Protein Assay Kit (Takara Bio Co., Ltd.), and a certain amount of the protein (3 μg for the measurement of MAP kinase and 5 μg for the measurement of phosphorylated MAP kinase) was subjected to polyacrylamide gel electrophoresis. The protein was transferred from the electrophoresed gel to a PVDF membrane, and Western immunoblotting was carried out using each of an anti-MAP kinase antibody (Cell Signaling Technology) and an anti-phosphorylated MAP kinase antibody (Cell Signaling Technology) of the primary antibody.
Subsequently, the reaction with an alkaline phosphatase-labeled anti-rabbit IgG antibody (Promega) of the secondary antibody was carried out, and the enzymatic activity was allowed to develop color, to measure MAP kinase (MAPK) and the phosphorylated MAP kinase (pMAPK).
Incidentally, each of the compounds of the present invention was dissolved in 0.1% DMSO to adjust its concentration to 250 μg/ml. As to the control, 0.1% DMSO was added.
The intensity of the concentration of the bands of eletrophoresed the gel was calculated and quantified using Image J (K. K. Bioarts). The numerical values for the MAPK when using the compounds of the present invention were each divided by the numerical value for the MAPK of the control, and the numerical values for the pMAPK when using the compounds of the present invention were divided by the numerical value for the pMAPK of the control, whereby a ratio of the MAPK when using each of the compounds of the present invention to the control, and a ratio of the pMAPK when using each of the compounds of the present invention to the control were obtained. Subsequently, the ratio of the pMAPK to the control obtained was divided by the ratio of the MAPK to the control to obtain a ratio of the pMAPK to the MAPK.
As to `CCCCCCC/C=C/C(=O)N1CCC(CN(CC)CC)CC1` [Compound 14, 1-((E)-2-Decenoyl)-4-diethylaminomethylpiperidine], the fold induction at 250 µg/mL worked out at 2.08.

Take `CCCCCCC/C=C/C(=O)N1CCC(N(CC)CC)CC1` [Compound 13, 1-((E)-2-Decenoyl)-4-diethylaminopiperidine]: the fold induction at 250 µg/mL is 1.63. Same read-out and setting: for `CCCCCCC/C=C/C(=O)N1CCN(CCN2CCCCC2)CC1` [Compound 24, 1-((E)-2-Decenoyl)-4-(2-piperidin-1-ylethyl)piperazine] the value was 2.58.

Test system in a further series: not given
Test: not given
Conditions: not given
On to `CCCCCCC/C=C/C(=O)N1CCN(c2ccc(OCC(=O)O)cc2)CC1` [Compound 47, 2-[4-[4-((E)-2-Decenoyl)piperazin-1-yl]phenoxy]acetic acid], for which the melting point was 210 °C (dec.). In turn, `CCCCCCC/C=C/C(=O)N1CCN(c2ccc(O)cc2)CC1` [Compound 46, 1-((E)-2-Decenoyl)-4-(4-hydroxyphenyl)piperazine] registered a melting point of 85 to 87 °C. On the same count and under the same terms, under `CCCCCCC/C=C/C(=O)N1CCN(c2ccc(OC)cc2)CC1` [Compound 42, 1-((E)-2-Decenoyl)-4-(4-methoxyphenyl)piperazine] stands 50 to 52 °C; under `CCCCCCC/C=C/C(=O)N1CCN(Cc2ccc(C(=O)O)cc2)CC1` [Compound 48, 4-[[4-((E)-2-Decenoyl)piperazin-1-yl]methyl]benzoic acid], 114 to 116 °C; under `CCCCCCC/C=C/C(=O)N1CCN(c2ccc(N(C)C)cc2)CC1` [Compound 28, 1-((E)-2-Decenoyl)-4-(4-dimethylaminophenyl)piperazine], 73 to 74 °C.

`CCCCCCC/C=C/C(=O)N1CCN(CCCC(=O)O)CC1.Cl` [Compound 40, 4-[4-[(E)-2-Decenoyl]piperazin-1-yl]butanoic acid hydrochloride] showed a melting point of 203 to 205 °C. Same read-out and setting: for `CCCCCCC/C=C/C(=O)N1CCC(CC(=O)O)CC1` [Compound 35, 2-(1-((E)-2-Decenoyl)-4-piperidyl)acetic acid] the value was 65 to 66 °C; for `CCCCCCC/C=C/C(=O)N1CCN(c2ccc(C)cc2)CC1` [Compound 43, 1-((E)-2-Decenoyl)-4-(4-methylphenyl)piperazine], 45 to 46 °C. Still for that read-out and setting: for `CCCCCCC/C=C/C(=O)N1CCN(CC(=O)O)CC1.Cl` [Compound 39, [4-[(E)-2-Decenoyl]piperazin-1-yl]acetic acid hydrochloride] the value was 195 °C (dec.).

As a reminder, the melting point is the temperature, or range, at which the solid turns liquid.
